Experimental data published in the NIST ThermoML archive (doi:10.1021/acs.jced.7b00722).
± gives the expanded uncertainty stated by the source.

Legend:
[1] = wn = mass fraction of the nth substance listed; conditions: 298.15 K, 100 kPa, Liquid; for viscosity: Falling or rolling sphere viscometry; for mass density: Vibrating tube method
[2] = refractive index (Na D-line) (dimensionless); wn = mass fraction of the nth substance listed; conditions: 298.15 K, 100 kPa, Liquid, Standard Abbe refractometry
[3] = 298.15 K; 100 kPa; Liquid; Falling or rolling sphere viscometry
[4] = refractive index (Na D-line) (dimensionless); conditions: 298.15 K; 100 kPa; Liquid; Standard Abbe refractometry

O=C([O-])[C@H](O)[C@@H](O)C(=O)[O-].[K+].[K+] [dipotassium L-tartrate] + O
Conditions | mass density, [1] [kg/m3] | refractive index, [2] | viscosity, [1] [mPa·s]
w1 = 0.02 | 1006 ± 11 | 1.3345 ± 0.0024 | 0.929 ± 0.037
w1 = 0.04 | 1019.6 ± 14 | 1.3374 ± 0.0029 | 0.965 ± 0.037
w1 = 0.06 | 1033.3 ± 14 | 1.3403 ± 0.0029 | 0.998 ± 0.039
w1 = 0.08 | 1046.9 ± 14 | 1.3432 ± 0.0029 | 1.04 ± 0.048
w1 = 0.1 | 1060.6 ± 14 | 1.3461 ± 0.0029 | 1.09 ± 0.045
w1 = 0.15 | 1094.7 ± 14 | 1.3533 ± 0.0029 | 1.191 ± 0.047
w1 = 0.2 | 1128.9 ± 14 | 1.3606 ± 0.0029 | 1.313 ± 0.056
w1 = 0.25 | 1163 ± 14 | 1.3678 ± 0.0029 | 1.46 ± 0.058
w1 = 0.3 | 1197.1 ± 14 | 1.375 ± 0.0029 | 1.59 ± 0.064
w1 = 0.4 | 1265.4 ± 14 | 1.3895 ± 0.0029 | 1.91 ± 0.068

O [water]
Conditions | refractive index | viscosity [mPa·s]
[3] | – | 0.894 ± 0.011
[4] | 1.3327 ± 0.0004 | –

O [water] + O=C([O-])[C@H](O)[C@@H](O)C(=O)[O-].[K+].[K+]
w2 = 0
Conditions | refractive index | viscosity [mPa·s]
[1] | – | 0.894 ± 0.011
[2] | 1.3327 ± 0.0004 | –
